# Test results: patent US20250296937A1, “CYCLIC BISBENZYL TETRAHYDROISOQUINOLINE COMPOUND, AND PREPARATION METHOD THEREFOR AND USE THEREOF” (Shanghai Institute of Materia Medica, Chinesse Academy of …, priority 2021, published 2025)
# Entries after “also recorded” stand apart in the source; their conditions may differ. Where two headings read alike, the source gives them in different places.
# Columns and labels:
# [1] = test system: Th1/Th17 differentiation of CD4+T cells; experiment: CD4+T cell in vitro differentiation assay (Th1 IFN-γ / Th17 IL-17A, flow cytometry); details: 10 μM, 72 h, IFN-γ/IL-17A by flow cytometry
# Experimental: CD4^+T cell isolation: CD4^+T cells were isolated from the spleens of 7-8 week old C57BL/6 mice using the Mouse CD4^+T Cell Sorting Kit (Dynabeads® Untouched™ Mouse CD4 Cells Isolation Kit, Invitrogen, Catalog nos: 11415D).
# In vitro differentiation of CD4^+T cells: the isolated CD4^+T cells were inoculated into 96-well plates while different concentrations of compounds were added, and then corresponding cytokines and antibodies were added: anti-CD28 (2 μg/ml), anti-CD3 (2 μg/ml), Anti-IL-4 (10 μg/ml), IL-12 (10 ng/ml), Anti-IFN-γ (10 μg/ml), anti-IL-4 (10 μg/ml), IL-6 (30 ng/ml), TGF-β1 (3 ng/ml), IL-10 (10 ng/ml), IL-23 (10 ng/ml), and TNF-α (10 ng/ml). Cells were cultured in 5% CO2 at 37° C. in a cell culture chamber for 72 h. Cells were collected, stained intracellularly, analyzed by flow cytometry, and tested for IFN-γ/IL-17A content to assess the effect of compounds on CD4^+T differentiation into Th1/Th17 in vitro.
# HCoV OC43 virus = experiment: Inhibition against HCoV OC43 virus replication; type: cell-based, human coronavirus HCoV OC43
# [2] = test system: 2019 novel coronavirus (SARS-CoV-2) original strain; experiment: Replication inhibitory activity against SARS-CoV-2 original strain in Vero E6 cells (qRT-PCR); type: cell-based; details: read-out: Inhibition against viral replication of the original strain EC50
# [3] = molecular target: novel coronavirus envelope protein (2-E) ion channel (Severe acute respiratory syndrome coronavirus 2, UniProt P0DTC4); experiment: Novel coronavirus envelope protein (2-E) ion channel activity test, planar lipid bilayer (BLM); type: biochemical, SARS-CoV-2; details: room temperature, 1, 10, 50, 100 μM, read-out: Inhibition against 2-E ion channels IC50
# hERG potassium channel = molecular target: T1, hERG potassium channel (Homo sapiens, UniProt Q12809); experiment: hERG potassium channel whole-cell membrane clamp in CHO cells; type: cell-based; details: CHO cells stably expressing hERG, whole-cell membrane clamp
# T1 construct: expressed in transfected cells
# Experimental: Compounds were given for at least 1 min for each tested concentration, and at least 2 cells (n≥2) were tested per concentration.
# Raw 264.7 cells [4] = experiment: Cell viability in TNF-α induced inflammation model of Raw 264.7 cells (CCK-8); type: cell-based; details: 10 ng/ml TNF-α, 1 μM compound, 16 hours
# Experimental: (§1) In this embodiment, the effect of compounds on TNF-α-induced inflammation levels in Raw 264.7 cells was analyzed by cell viability combined with inflammatory factor expression levels; cell viability was analyzed by CCK-8 assay; and mRNA expression levels of inflammation-associated indicators were detected by real-time quantitative PCR (Q-PCR) method. Raw 264.7 cells were purchased from ATCC, CCK-8 kit was purchased from Meilunbio, item number MA0218-3, TNF-α was purchased from Merck, item no. GF314.
# (§2) Experimental methods: first, 8000 cells/well Raw 264.7 cells were placed in 96-well plates and incubated overnight. On the second day, 0.1% DMSO was added to the control cells, 10 ng/ml TNF-α as well as 0.1% DMSO was added to the model group, 10 ng/ml TNF-α as well as 1 μM of the compounds (oxyacanthine hydrochloride (oxy), 1, 2, tetrandrine (tet), 3, 4, 6, 58) was added to the treatment group, and the 96-well plates were sterilized and incubated in a constant temperature incubator for 16 hours. Finally, the viability of the cells was detected using the CCK-8 kit.
# Raw 264.7 cells [5] = experiment: Cell viability in LPS-induced inflammation model of Raw 264.7 cells (CCK-8); type: cell-based; details: 1 μg/ml LPS, 1 μM compound, 16 hours
# Experimental: (§3) In this example, the effect of the compounds of the present invention on the inflammation level of the LPS-induced inflammation model of Raw 264.7 cells was analyzed by cell viability in combination with inflammatory factors; cell viability was analyzed by CCK-8 assay; and mRNA expression levels of inflammation-related indicators were detected by a real-time quantitative PCR (Q-PCR) method. Raw 264.7 cells were purchased from ATCC; CCK-8 kit was purchased from Meilunbio, item no. MA0218-3; LPS was purchased from Sigma, item no. L2630.
# as §2, with “1 μg/ml LPS” for “10 ng/ml TNF-α”
# ALM12 hepatocytes = experiment: Anti H2O2-induced necrotic injury assay in ALM12 hepatocytes (microscopy, CCK-8); type: cell-based; details: 2 mM H2O2, 1 μM compound, 3 hours, microscope and CCK-8
# Experimental: In this example, the effect of the compounds of the present invention on the level of necrotic injury induced by H2O2 in ALM12 hepatocytes was analyzed by microscopic morphological observations, cell viability in combination with cell death-associated molecules. Cell viability was analyzed by CCK-8 assay. ALM12 cells were cultured in 1640 medium (gibco, c11995500BT)+10% FBS (gibco, 10099141C) in a constant temperature incubator at 37° C., 5% CO2; the CCK-8 kit was purchased from Meilunbio, item no. MA0218-3; H2O2 was purchased from Sinopharm Chemical Reagent Co. item no. 10011208.
# (§4) Experimental methods: first, 8000 cells/well ALM12 cells were placed in 96-well plates and incubated overnight. On the second day, 0.1% DMSO was added to the control cells, 2 mM H2O2 as well as 0.1% DMSO was added to the model group, 2 mM H2O2 as well as 1 μM of the compounds (oxy, 1, 2, tet, 3, 4, 6, 58) was added to the treatment group, and the 96-well plates were sterilized and incubated in a constant temperature incubator for 3 hours. Finally, cell injury and growth were observed using a microscope; the viability of the cells was detected by CCK-8 kit.
# [6] = Cytotoxicity test on Vero E6 cells (CCK8); type: cell-based; details: African green monkey; Vero E6 cells, CCK8 kit
# Experimental: (§5) In this embodiment, the half toxicity concentration of each embodiment on Vero E6 cells was determined by CCK8 kit analysis (CC50).
# Vero E6 cells = experiment: Cytotoxicity test on Vero E6 cells (CCK8); type: cell-based; details: Vero E6 cells
# Experimental: as §5
# [7] = test system: TNF-α and IL1β mRNA in A549 cells; experiment: mRNA levels of injury indicators in TNF-α-induced A549 cell injury (Q-PCR); type: cell-based; details: 10 ng/ml TNF-α, 1 μM compound, 24 hours
# Experimental: In this example, cell viability combined with cell death-associated molecules were used to analyze the effect of compounds on the level of TNF-α-induced injury in A549 lung epithelial cells. Cell injury was observed by microscopy; cell viability was analyzed by CCK-8 assay; and mRNA expression levels of injury-related indicators were detected by real-time quantitative PCR (Q-PCR) method. A549 cells were purchased from ATCC, CCK-8 kit was purchased from Meilunbio, item no. MA0218-3, and LPS was purchased from Sigma, item no. L2630.
# (§6) Experimental methods: first, 5*10^4 cells/well A549 cells were placed in 12-well plates and incubated overnight. On the second day, 0.1% DMSO was added to the control cells, 10 ng/ml TNF-α as well as 0.1% DMSO was added to the model group, 10 ng/ml TNF-α as well as 1 μM of the compounds (oxy, 1, 2, tet, 3, 4, 6, 58) was added to the treatment group, and the 12-well plates were sterilized and incubated in a constant temperature incubator for 24 hours. Cellular mRNA was extracted by lysis using Trizol (Yisheng, 10606ES60) and detected by real-time quantitative PCR after reverse transcription.
# [8] = test system: inflammatory factor mRNA in Raw 264.7 cells; experiment: mRNA levels of inflammatory indicators in TNF-α-induced inflammation model of Raw264.7 cells (Q-PCR); type: cell-based; details: 10 ng/ml TNF-α, 1 μM compound, 16 hours
# Experimental: as §1
# as §6, with “Raw 264.7” for “A549”, “(oxyacanthine hydrochloride (oxy),” for “(oxy,”, “tetrandrine (tet),” for “tet,”, “16” for “24”, “transcription, the primers are the same as in Table 2.” for “transcription.”
# [9] = test system: IL-6, IL-1β, CXCL9 mRNA in Raw 264.7 cells; experiment: mRNA levels of inflammatory indicators in LPS-induced inflammation model of Raw264.7 cells (Q-PCR); type: cell-based; details: 1 μg/ml LPS, 1 μM compound, 16 hours
# Experimental: as §3
# as §6, with “Raw 264.7” for “A549”, “1 μg/ml LPS” for “10 ng/ml TNF-α”, “(oxyacanthine hydrochloride (oxy),” for “(oxy,”, “tetrandrine (tet),” for “tet,”, “16” for “24”
# [10] = test system: A549 lung epithelial cells; experiment: Anti TGF-β1-induced fibrosis assay in A549 lung epithelial cells (microscopy, Western Blot); type: cell-based; details: 10 ng/ml TGF-β1, 1 μM compound
# Experimental: Cell injury was observed by microscopic observation; cell viability was analyzed by CCK-8 assay; and protein expression levels of fibrosis-related indicators were detected by Western Blot method. A549 cells were purchased from ATCC; CCK-8 kit was purchased from Meilunbio, item number MA0218-3; TGF-β1 was purchased from MCE, item number HY-P70543; primary antibodies: Collagen was purchased from ARG21965, item no. arigobio; α-smooth muscle actin was purchased from CST, item no. mAb #19245; VIMENTN was purchased from CST, item no. mAb #5741; GAPDH was purchased from Yeasen, item no. 30201ES20.
# as §4, with “cells/well A549” for “cells/well ALM12”, “cells, 10 ng/ml TGF-β1” for “cells, 2 mM H2O2”, “group, 10 ng/ml TGF-β1” for “group, 2 mM H2O2”, “for 72” for “for 3”
# [11] = Severe acute respiratory syndrome coronavirus 2, Vero C1008, Vero E6 cells, MOI 0.01, 24 h p.i., viral copy number by qRT-PCR
# T1 sequence (Q12809 whole entry): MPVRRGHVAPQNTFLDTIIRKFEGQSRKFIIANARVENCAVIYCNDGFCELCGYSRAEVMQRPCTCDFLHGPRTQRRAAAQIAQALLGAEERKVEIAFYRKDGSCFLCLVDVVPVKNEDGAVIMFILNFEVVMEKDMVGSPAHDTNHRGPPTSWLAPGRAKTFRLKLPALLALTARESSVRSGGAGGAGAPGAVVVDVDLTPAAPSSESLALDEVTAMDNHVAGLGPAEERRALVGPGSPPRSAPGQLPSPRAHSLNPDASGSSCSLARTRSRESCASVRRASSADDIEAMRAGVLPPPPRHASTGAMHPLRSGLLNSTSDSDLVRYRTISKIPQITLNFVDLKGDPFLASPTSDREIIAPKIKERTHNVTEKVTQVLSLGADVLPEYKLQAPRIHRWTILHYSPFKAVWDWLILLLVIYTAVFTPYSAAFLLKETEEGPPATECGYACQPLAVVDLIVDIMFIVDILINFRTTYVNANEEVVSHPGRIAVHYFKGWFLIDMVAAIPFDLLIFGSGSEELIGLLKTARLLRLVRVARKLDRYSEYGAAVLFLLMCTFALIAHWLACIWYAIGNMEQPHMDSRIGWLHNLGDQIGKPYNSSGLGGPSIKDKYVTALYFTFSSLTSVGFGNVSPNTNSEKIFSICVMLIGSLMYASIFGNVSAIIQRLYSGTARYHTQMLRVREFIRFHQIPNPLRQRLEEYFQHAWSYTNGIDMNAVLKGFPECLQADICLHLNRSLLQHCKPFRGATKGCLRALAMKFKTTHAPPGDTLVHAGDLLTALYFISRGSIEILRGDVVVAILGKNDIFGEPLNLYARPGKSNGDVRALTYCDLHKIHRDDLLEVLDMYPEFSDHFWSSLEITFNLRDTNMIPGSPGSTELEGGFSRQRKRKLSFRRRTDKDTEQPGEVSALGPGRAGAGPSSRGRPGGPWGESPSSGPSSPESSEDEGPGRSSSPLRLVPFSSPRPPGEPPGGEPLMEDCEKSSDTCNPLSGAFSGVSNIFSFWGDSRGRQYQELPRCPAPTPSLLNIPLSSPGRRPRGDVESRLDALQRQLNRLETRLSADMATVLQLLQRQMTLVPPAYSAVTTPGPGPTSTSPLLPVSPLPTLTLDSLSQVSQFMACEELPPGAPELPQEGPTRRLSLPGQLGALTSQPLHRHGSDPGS
# Chain of novel coronavirus envelope protein (2-E) ion channel (P0DTC4 whole entry, looked up): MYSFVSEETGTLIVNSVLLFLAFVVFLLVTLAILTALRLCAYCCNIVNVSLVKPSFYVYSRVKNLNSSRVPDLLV
Molecule,inhibitory effect on Th1/Th17 differentiation [1],inhibition against human coronavirus HCoV OC43 (HCoV OC43 virus),"EC50 (HCoV OC43 virus; Betacoronavirus 1, OC43)","EC50 [2, 11]",IC50 [3],IC50 (hERG potassium channel),cell viability in TNF-α-induced inflammation model (Raw 264.7 cells [4]),cell viability in LPS-induced inflammation model (Raw 264.7 cells [5]),alleviation of H2O2-induced ALM12 hepatocyte injury (ALM12 hepatocytes),IC50 [6],cytotoxicity on Vero E6 cells compared with oxyacanthine hydrochloride (Vero E6 cells),inhibition of injury (damage) factors mRNA in TNF-α-induced A549 lung cell injury model [7],inhibition of inflammatory factors (mRNA) in TNF-α-induced inflammation model [8],"inhibition of inflammatory factors (IL-6, IL-1β, CXCL9 mRNA) in LPS-induced inflammation model [9]","alleviation of TGF-β1-induced fibrosis in A549 lung epithelial cells (Collagen1, α-SMA by WB) [10]",EC50 [2],IC50 (Vero E6 cells; CCK8 kit)
COC(=O)c1ccc2cc1Oc1ccc(cc1)C[C@H]1c3c(cc(OC)c(OC)c3Oc3cc4c(cc3OC)CCN(C)[C@@H]4C2)CCN1C [Compound 3],strong inhibitory effect,strong inhibition,2.3 µM,0.1 to 1 µM,< 10 µM,7 µM,did not affect cell viability,did not affect cell viability,significantly alleviated,30 to 50 µM,weaker cytotoxicity than oxyacanthine hydrochloride,significantly inhibited the damage factors,significantly inhibited inflammatory factors; also recorded: significant inhibition,–,–,–,–
COc1cc2c3cc1Oc1c(OC)c(OC)cc4c1[C@H](Cc1ccc(cc1)Oc1cc(ccc1C(=O)NC1CC1)C[C@H]3N(C)CC2)N(C)CC4 [Compound 6],strong inhibitory effect,–,–,0.1 to 1 µM,–,8.9 µM,did not affect cell viability,did not affect cell viability,significantly alleviated,> 50 µM,weaker cytotoxicity than oxyacanthine hydrochloride,–,significantly inhibited inflammatory factors; also recorded: significant inhibition,–,–,–,–
COc1cc2c3cc1Oc1c(OC)c(OC)cc4c1[C@H](Cc1ccc(cc1)Oc1cc(ccc1C(=O)OCCOCCO)C[C@H]3N(C)CC2)N(C)CC4 [Compound 58],strong inhibitory effect,–,–,0.1 to 1 µM,–,16.5 µM,did not affect cell viability,did not affect cell viability,significantly alleviated,> 50 µM,weaker cytotoxicity than oxyacanthine hydrochloride,significantly inhibited the damage factors,significantly inhibited inflammatory factors; also recorded: significant inhibition,significantly inhibited inflammatory factors; also recorded: significant inhibition,–,–,–
oxyacanthine hydrochloride [reference compound],–,–,–,–,> 100 µM,–,–,–,–,–,–,significantly inhibited,significant inhibition,significant inhibition,partially alleviate fibrosis,> 10 µM,< 30 µM
